From US8247211B2, “Glycopeptide antibiotics” (American Cyanamid Company, priority 2001, dated 2012)
Values after ≈ are worked out from the molar mass of the structure shown.

Legend:
Test in all cases: In vitro antibacterial evaluation: minimum inhibitory concentration (MIC), broth dilution method
Type in all cases: cell-based
Enterococcus sp. = test system: Enterococcus sp.
Method in brief: (§1)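 Following NCCLS approved standard M7-A2, compounds are serially diluted from 64 to 0.06 μg/mL in Muller-Hinton II […] and inoculated at 5×10^5 CFU/mL; the MIC is the minimum concentration at which growth is inhibited.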

Escherichia coli [1] = test system: Escherichia coli
Method in brief: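 NCCLS M7-A2 broth dilution with Mueller-Hinton II, testing 64-0.06 μg/mL antibiotic against 5×10^5 CFU/mL inocula. Test strains include recent methicillin-, penicillin- or vancomycin-resistant clinical isolates. MIC is the lowest concentration preventing growth.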

Staphylococcus sp. = conditions: 18 hours at 35° C.
Method in brief: as §1

Streptococcus sp. = conditions: broth dilution, 18 hours at 35° C.; for MIC Streptococcus pyogenes (GC 4563): strain GC 4563
Method in brief: as §1

Escherichia coli [2] = test system: Escherichia coli; remark: listed apart in the source
[3] = Enterococcus faecalis (ATCC 29212)
[4] = Enterococcus faecalis (GC 4553)
[5] = Enterococcus faecalis (GC 4554)

CC(C)CC(=O)OC1C(OC2C(CO)OC(Oc3ccc(CC4NC(=O)C(C(C)c5cccs5)NC(=O)CNC(=O)C(CO)NC(=O)C(C(O)C5CNC(=N)N5C5OC(CO)C(O)C(O)C5O)NC(=O)C(C(O)C5CNC(=N)N5)NC4=O)cc3)C(O)C2O)OC(CO)C(O)C1O (stereo not shown) [Example 265a, Cyclo[3-(2-thienyl)-2-aminobutanoyl-O-[4-O-[2-O-(3-methylbutanoyl)hexopyranosyl]hexopyranosyl]tyrosyl-3-(2-iminoimidazolidin-4-yl)seryl-3-(3-hexopyranosyl-2-iminoimidazolidin-4-yl)serylserylglycyl]]
MIC Enterococcus avium (GC 4558) (Enterococcus sp.; Enterococcus avium (GC 4558)): 64 µg/mL (≈ 46.2 µM)
MIC Enterococcus faecalis (ATCC 29212) (Enterococcus sp.; [3]): 64 µg/mL (≈ 46.2 µM)
MIC Enterococcus faecalis (GC 4553) (Enterococcus sp.; [4]): >64 µg/mL
MIC Enterococcus faecalis (GC 4554) (Enterococcus sp.; [5]): >64 µg/mL
MIC Enterococcus faecium (GC 2243) (Enterococcus sp.; Enterococcus faecium (GC 2243)): >64 µg/mL
MIC Enterococcus faecium (GC 4556) (Enterococcus sp.; Enterococcus faecium (GC 4556)): 64 µg/mL (≈ 46.2 µM)
MIC Enterococcus faecium (GC 4557) (Enterococcus sp.; Enterococcus faecium (GC 4557)): 8 µg/mL (≈ 5.77 µM)
MIC Escherichia coli (GC 4559) (Escherichia coli [1]): >64 µg/mL
MIC Escherichia coli (GC 4560) (Escherichia coli [1]): 4 µg/mL (≈ 2.89 µM)
MIC Coagulase Negative Staphylococcus (GC 4547) (Staphylococcus sp.): 8 µg/mL (≈ 5.77 µM)
MIC Coagulase Negative Staphylococcus (GC 4547) (Staphylococcus sp.; broth dilution): 8 µg/mL (≈ 5.77 µM)
MIC Coagulase Negative Staphylococcus (GC 4548) (Staphylococcus sp.): 8 µg/mL (≈ 5.77 µM)
MIC Coagulase Negative Staphylococcus (GC 4548) (Staphylococcus sp.; broth dilution): 8 µg/mL (≈ 5.77 µM)
MIC Coagulase Negative Staphylococcus (GC 4549) (Staphylococcus sp.): 4 µg/mL (≈ 2.89 µM)
MIC Coagulase Negative Staphylococcus (GC 4549) (Staphylococcus sp.; broth dilution): 4 µg/mL (≈ 2.89 µM)
MIC Coagulase Negative Staphylococcus (GC 4551) (Staphylococcus sp.): 8 µg/mL (≈ 5.77 µM)
MIC Coagulase Negative Staphylococcus (GC 4551) (Staphylococcus sp.; broth dilution): 8 µg/mL (≈ 5.77 µM)
MIC Staphylococcus aureus (ATCC 29213) (Staphylococcus sp.): 16 µg/mL (≈ 11.5 µM)
MIC Staphylococcus aureus (ATCC 29213) (Staphylococcus sp.; broth dilution): 16 µg/mL (≈ 11.5 µM)
MIC Staphylococcus aureus (GC 1131) (Staphylococcus sp.): 32 µg/mL (≈ 23.1 µM)
MIC Staphylococcus aureus (GC 1131) (Staphylococcus sp.; broth dilution): 32 µg/mL (≈ 23.1 µM)
MIC Staphylococcus aureus (GC 4541) (Staphylococcus sp.): 16 µg/mL (≈ 11.5 µM)
MIC Staphylococcus aureus (GC 4541) (Staphylococcus sp.; broth dilution): 16 µg/mL (≈ 11.5 µM)
MIC Staphylococcus aureus (GC 4542) (Staphylococcus sp.): 16 µg/mL (≈ 11.5 µM)
MIC Staphylococcus aureus (GC 4542) (Staphylococcus sp.; broth dilution): 16 µg/mL (≈ 11.5 µM)
MIC Staphylococcus aureus (GC 4544) (Staphylococcus sp.): 8 µg/mL (≈ 5.77 µM)
MIC Staphylococcus aureus (GC 4544) (Staphylococcus sp.; broth dilution): 8 µg/mL (≈ 5.77 µM)
MIC Staphylococcus aureus (GC 4545) (Staphylococcus sp.): 16 µg/mL (≈ 11.5 µM)
MIC Staphylococcus aureus (GC 4545) (Staphylococcus sp.; broth dilution): 16 µg/mL (≈ 11.5 µM)
MIC Staphylococcus aureus-SMITH (GC 4543) (Staphylococcus sp.): 8 µg/mL (≈ 5.77 µM)
MIC Staphylococcus aureus-SMITH (GC 4543) (Staphylococcus sp.; broth dilution): 8 µg/mL (≈ 5.77 µM)
MIC Staphylococcus haemolyticus (GC 4546) (Staphylococcus sp.): 8 µg/mL (≈ 5.77 µM)
MIC Staphylococcus haemolyticus (GC 4546) (Staphylococcus sp.; broth dilution): 8 µg/mL (≈ 5.77 µM)
MIC Streptococcus pyogenes (GC 4563) (Streptococcus sp.): 4 µg/mL (≈ 2.89 µM)
MIC Streptococcus pyogenes (ID-3187) (Streptococcus sp.; strain ID-3187): 64 µg/mL (≈ 46.2 µM)
MIC Escherichia coli (ATCC 25922) (Escherichia coli [2]): >64 µg/mL

CC(c1ccccc1)C1NC(=O)CNC(=O)C(CO)NC(=O)C(C(O)C2CNC(=N)N2C2OC(CO)C(O)C(O)C2O)NC(=O)C(C(O)C2CNC(=N)N2)NC(=O)C(Cc2ccc(OC3OC(CO)C(OC4OC(CO)C(O)C(O)C4O)C(O)C3O)cc2N)NC1=O (stereo not drawn) [Example 287, Cyclo[glycyl-β-methylphenylalanyl-2-amino-O-(4-O-hexopyranosylhexopyranosyl)tyrosyl-3-(2-iminoimidazolidin-4-yl)seryl-3-(3-hexopyranosyl-2-iminoimidazolidin-4-yl)serylseryl]]
MIC Enterococcus avium (GC 4558) (Enterococcus sp.; Enterococcus avium (GC 4558)): 64 µg/mL (≈ 48.8 µM)
MIC Enterococcus faecalis (ATCC 29212) (Enterococcus sp.; [3]): >64 µg/mL
MIC Enterococcus faecalis (GC 4553) (Enterococcus sp.; [4]): >64 µg/mL
MIC Enterococcus faecalis (GC 4554) (Enterococcus sp.; [5]): >64 µg/mL
MIC Enterococcus faecalis (GC 6189) (Enterococcus sp.; Enterococcus faecalis (GC 6189)): >64 µg/mL
MIC Enterococcus faecium (GC 2243) (Enterococcus sp.; Enterococcus faecium (GC 2243)): >64 µg/mL
MIC Enterococcus faecium (GC 4556) (Enterococcus sp.; Enterococcus faecium (GC 4556)): >64 µg/mL
MIC Enterococcus faecium (GC 4557) (Enterococcus sp.; Enterococcus faecium (GC 4557)): 64 µg/mL (≈ 48.8 µM)
MIC Enterococcus faecalis (ATCC 29212) (Enterococcus sp.; broth dilution, 18 hours at 35° C., strain ATCC 29212): >64 µg/mL
MIC Enterococcus faecalis (GC 2242) (Enterococcus sp.; broth dilution, 18 hours at 35° C., strain GC 2242): >64 µg/mL
MIC Enterococcus faecium (GC 2243) (Enterococcus sp.; broth dilution, 18 hours at 35° C., strain GC 2243): >64 µg/mL
MIC Enterococcus faecalis (GC 2691) (Enterococcus sp.; broth dilution, 18 hours at 35° C., strain GC 2691): >64 µg/mL
MIC Enterococcus faecalis (GC 3059) (Enterococcus sp.; broth dilution, 18 hours at 35° C., strain GC 3059): >64 µg/mL
MIC Enterococcus faecalis (GC 4552) (Enterococcus sp.; broth dilution, 18 hours at 35° C., strain GC 4552): >64 µg/mL
MIC Enterococcus faecalis (GC 4553) (Enterococcus sp.; broth dilution, 18 hours at 35° C., strain GC 4553): >64 µg/mL
MIC Enterococcus faecalis (GC 4554) (Enterococcus sp.; broth dilution, 18 hours at 35° C., strain GC 4554): >64 µg/mL
MIC Enterococcus faecium (GC 4556) (Enterococcus sp.; broth dilution, 18 hours at 35° C., strain GC 4556): >64 µg/mL
MIC Enterococcus faecium (GC 4557) (Enterococcus sp.; broth dilution, 18 hours at 35° C., strain GC 4557): 64 µg/mL (≈ 48.8 µM)
MIC Enterococcus avium (GC 4558) (Enterococcus sp.; broth dilution, 18 hours at 35° C., strain GC 4558): 64 µg/mL (≈ 48.8 µM)
MIC Enterococcus faecalis (GC 6189) (Enterococcus sp.; broth dilution, 18 hours at 35° C., strain GC 6189): >64 µg/mL
MIC Escherichia coli (GC 4559) (Escherichia coli [1]): >64 µg/mL
MIC Escherichia coli (GC 4560) (Escherichia coli [1]): >64 µg/mL
MIC Coagulase Negative Staphylococcus (GC 4547) (Staphylococcus sp.): >64 µg/mL
MIC Coagulase Negative Staphylococcus (GC 4547) (Staphylococcus sp.; broth dilution): >64 µg/mL
MIC Coagulase Negative Staphylococcus (GC 4548) (Staphylococcus sp.): >64 µg/mL
MIC Coagulase Negative Staphylococcus (GC 4548) (Staphylococcus sp.; broth dilution): >64 µg/mL
MIC Coagulase Negative Staphylococcus (GC 4549) (Staphylococcus sp.): >64 µg/mL
MIC Coagulase Negative Staphylococcus (GC 4549) (Staphylococcus sp.; broth dilution): >64 µg/mL
MIC Coagulase Negative Staphylococcus (GC 4551) (Staphylococcus sp.): >64 µg/mL
MIC Coagulase Negative Staphylococcus (GC 4551) (Staphylococcus sp.; broth dilution): >64 µg/mL
MIC Coagulase Negative Staphylococcus (GC 6257) (Staphylococcus sp.): >64 µg/mL
MIC Coagulase Negative Staphylococcus (GC 6257) (Staphylococcus sp.; broth dilution): >64 µg/mL
MIC Staphylococcus aureus (ATCC 29213) (Staphylococcus sp.): >64 µg/mL
MIC Staphylococcus aureus (ATCC 29213) (Staphylococcus sp.; broth dilution): >64 µg/mL
MIC Staphylococcus aureus (GC 1131) (Staphylococcus sp.): >64 µg/mL
MIC Staphylococcus aureus (GC 1131) (Staphylococcus sp.; broth dilution): >64 µg/mL
MIC Staphylococcus aureus (GC 3051) (Staphylococcus sp.): >64 µg/mL
MIC Staphylococcus aureus (GC 3051) (Staphylococcus sp.; broth dilution): >64 µg/mL
MIC Staphylococcus aureus (GC 3053) (Staphylococcus sp.): >64 µg/mL
MIC Staphylococcus aureus (GC 3053) (Staphylococcus sp.; broth dilution): >64 µg/mL
MIC Staphylococcus aureus (GC 4541) (Staphylococcus sp.): >64 µg/mL
MIC Staphylococcus aureus (GC 4541) (Staphylococcus sp.; broth dilution): >64 µg/mL
MIC Staphylococcus aureus (GC 4542) (Staphylococcus sp.): >64 µg/mL
MIC Staphylococcus aureus (GC 4542) (Staphylococcus sp.; broth dilution): >64 µg/mL
MIC Staphylococcus aureus (GC 4544) (Staphylococcus sp.): >64 µg/mL
MIC Staphylococcus aureus (GC 4544) (Staphylococcus sp.; broth dilution): >64 µg/mL
MIC Staphylococcus aureus (GC 4545) (Staphylococcus sp.): >64 µg/mL
MIC Staphylococcus aureus (GC 4545) (Staphylococcus sp.; broth dilution): >64 µg/mL
MIC Staphylococcus aureus-SMITH (GC 4543) (Staphylococcus sp.): >64 µg/mL
MIC Staphylococcus aureus-SMITH (GC 4543) (Staphylococcus sp.; broth dilution): >64 µg/mL
MIC Staphylococcus haemolyticus (GC 4546) (Staphylococcus sp.): >64 µg/mL
MIC Staphylococcus haemolyticus (GC 4546) (Staphylococcus sp.; broth dilution): >64 µg/mL
MIC Streptococcus pneumoniae (ATCC 6301) (Streptococcus sp.; strain ATCC 6301): 64 µg/mL (≈ 48.8 µM)
MIC Streptococcus pneumoniae (GC 1894) (Streptococcus sp.; strain GC 1894): 64 µg/mL (≈ 48.8 µM)
MIC Streptococcus pyogenes (GC 4563) (Streptococcus sp.): >64 µg/mL
MIC Streptococcus agalactiae (GC 4564) (Streptococcus sp.; strain GC 4564): >64 µg/mL
MIC Streptococcus pneumoniae (GC 4565) (Streptococcus sp.; strain GC 4565): 64 µg/mL (≈ 48.8 µM)
MIC Escherichia coli (ATCC 25922) (Escherichia coli [2]): >64 µg/mL
